From patent US20060122153A1, “Antineoplastic ether lipid compounds with modifications at the sn-2 carbon” (priority 2003, published 2006)
Values joined by “and” are separate entries in the source; they are usually repeats but may differ in a detail not shown here. Equal entries are not always repeated. Where two headings read alike, the source gives them in different places.

Legend:
MCF7/ADR = test: In vitro growth inhibition (GI50), SRB assay; format: cell-based, human; details: MCF7/ADR tumor cell line, 3 days
From the text: (§1) The following cell lines were selected from the cell bank for screening and GI50 studies: MCF-7: human breast tumor, MCF-7/ADR: MCF-7 adriamycin resistant subline, HT-29: human colon carcinoma, A-549: human non-small cell lung cancer, NIH-3T3: mouse Swiss embryo fibroblast and WI-38: human lung fibroblast, SKMEL-28: human melanoma, Lewis Lung: mouse lung carcinoma, DU-145: prostate carcinoma, B16F10: mouse melanoma, L1210: murine lymphocytic leukemia, P-388: murine leukemia, U-937: human histolytic lymphoma. Except HT-29, WI-38, NIH-3T3 and Lewis Lung which were obtained from the American Type Culture Collection (Rockville, Md.) all the other cell lines were obtained from National Cancer Institute—Frederick Research Facility (Frederick, Md.). All the cell lines were grown in RPMI-1640 medium containing 10% fetal bovine serum (FBS) except WI-38 and DU-145 which were grown in EMEM+10% FBS at 37° C., 5% CO2 and 100% humidity and NIH-3T3, Lewis Lung, B16F10 and L1210 which were grown in DMEM containing 10% FBS (10% HS for L1210). All the adherent cell lines were detached from the culture flasks by addition of 2-3 ml of 0.05% trypsin-EDTA. Thereafter, trypsin was inactivated by addition of 10 mL of 10% serum-containing RPMI-1640 medium. Cells were separated into a single-cell suspension by gentle pipetting action. Depending on the cell type, […] to 10,000 cells were plated onto 96-well plates a day prior to the drug treatment, in a volume of 100 μl per well.
(§2) The test compounds were made in-house and the compounds were dissolved PBS or saline at a stock concentration of approximately 20 mM, which is 400 times the desired final maximum test concentration. The stock solutions were then diluted with complete medium to twice the desired final concentration. 100 μl aliquots of each dilution was then added to the designated wells. After 3 days of incubation, cell growth was determined.
(§3) The SRB assay was performed as described by Monks, A., Scudiero, D., Skehan, P., Shoemaker, R., Paull, K., Vistica, D., Hose, C., Langley, J., Cronise, P., and Vaigro-Wolff, A. Feasibility of a high-flux anticancer drug screen using a diverse panel of cultured human tumo-r cell lines. J Natl Cancer Inst, 83: 757-766, 1991 with minor modifications. Following drug treatment, cells were fixed with 50 μl of cold 50% (wt/vol) trichloroacetic acid (TCA) for 60 minutes at 4° C. The supernatant was discarded, and the plates were washed six times with deionized water and then air dried. The precipitate was stained with 100 μl SRB solution (0.4% wt/vol in 1% acetic acid) for 10 minutes at room temperature, and free SRB was removed by washing three times with 1% acetic acid, and the plates were then air dried. Bound SRB was solubilized with Tris buffer (10 mM), and the ODs were read using an automated plate reader (Bio-Rad, Model 3550-UV) at 490 nm. Background values were subtracted from the test data, and the data was calculated as a % of control. […] Percentage growth was calculated as described by, Peters, A. C., Ahmad, I., Janoff, A. S., Pushkareva, M. Y., and Mayhew, E. Growth Inhibitory effects of liposome-associated 1-o-octadecyl-2-o-methyl-sn-glycero-3-phosphocholine. Lipids, 32:1045-1054, 1997. The raw optical density data Was imported into an Excel spreadsheet to determine dose responses. […] By varying drug concentration,-dose response curves were generated and the GI-50 values were calculated. The GI50 values for each experiment were calculated using data obtained from three duplicate wells on two separate plates.
(§4) For growth inhibitory evaluation, we used five human tumor cell lines (U937; HT29; A549; MCF7; MCF7/ADR) and two normal fibroblast cell lines (NIH-3T3, murine; WI-38, human).

A549 = test: In vitro growth inhibition (GI50), SRB assay; format: cell-based, human; details: A549 tumor cell line, 3 days
From the text: as §1, §2, §3, §4

MCF7 = test: In vitro growth inhibition (GI50), SRB assay; format: cell-based, human; details: for GI50: MCF7 tumor cell line, 3 days; for effect on MCF7 growth compared to ET-18-OCH3 (in words): separate in-house study, Table 3
From the text: as §1, §2, §3, §4

HT29 = test: In vitro growth inhibition (GI50), SRB assay; format: cell-based, human; details: HT29 tumor cell line, 3 days
From the text: as §1, §2, §3, §4

BT-549 = test: NCI growth inhibition screen, breast panel; format: cell-based, human; set-up: key to Performance as compared to ET-18-O—CH3: = means equivalent activity; + means that it appears to be significantly better (i.e., by ˜2x); < means it appears to be less active than ET18OCH3 (˜2x); a combination like =/+ or </+ means that activity is dependent upon the isomer; a combination like =/+ or </+ means that activity is dependent upon the isomer; details: for Performance as compared to ET-18-O—CH3: BT-549, Breast, from GI50s; for activity compared to ET-18-OCH3 (in words): BT-549 cell line, NCI screen
Description: (§5) Candidates deemed suitable for in vivo testing were then synthesized in large scale quantities and some of this material was sent to the NCI's Developmental Therapeutics Program for a battery of growth inhibitory studies against various human tumor cell lines (60 cell lines, 9 different panels). The remainder of the material was used to assess in vivo efficacy using murine tumor models. Additionally, studies were conducted on the lead candidates to discern mechanism of action with particular emphasis on these agents apoptotic ability as measured by caspase 3 activity. The details (materials and methods) for these various assays are described further in the following discussion.
(§6) Ten compounds were also sent to NCI's Drug Discovery Program for screening against numerous human tumor cell lines (9 panels total: renal ovarian, colon, CNS, non-small cell lung, leukemia, breast, melanoma, and prostate). The data are shown in FIGS. 2a-i which also include data regarding D- and L-ET-18-OCH3 (listed as L-EL and D-EL in the figures). Upon examining the data, one is struck by how 1R and 1a′S standout in comparison to the other compounds, especially for the renal, ovarian, colon, and CNS panels.

T-47D = test: NCI growth inhibition screen, breast panel; format: cell-based, human; set-up: key to Performance as compared to ET-18-O—CH3: = means equivalent activity; + means that it appears to be significantly better (i.e., by ˜2x); < means it appears to be less active than ET18OCH3 (˜2x); a combination like =/+ or </+ means that activity is dependent upon the isomer; a combination like =/+ or </+ means that activity is dependent upon the isomer; details: for Performance as compared to ET-18-O—CH3: T-47D, Breast, from GI50s; for GI50: breast cancer cell line T-47D, NCI screen
Description: as §5, §6

MCF-7 = test: NCI growth inhibition screen, breast panel; format: cell-based, human; set-up: key to Performance as compared to ET-18-O—CH3: = means equivalent activity; + means that it appears to be significantly better (i.e., by ˜2x); < means it appears to be less active than ET18OCH3 (˜2x); a combination like =/+ or </+ means that activity is dependent upon the isomer; a combination like =/+ or </+ means that activity is dependent upon the isomer; details: for Performance as compared to ET-18-O—CH3: MCF-7, Breast, from GI50s; for activity compared to ET-18-OCH3 (in words): MCF-7 cell line, NCI screen
Description: as §5, §6

WI38 = details: for GI50: WI38 normal human fibroblast cell line, 3 days
From the text: as §1, §2, §3, §4

Row | Compound | GI50 (MCF7/ADR) [µM] | GI50 (A549) | GI50 (MCF7) | effect on MCF7 growth compared to ET-18-OCH3 (in words) (MCF7) | GI50 (HT29) | Performance as compared to ET-18-O—CH3 (BT-549) | activity compared to ET-18-OCH3 (in words) (BT-549) | Performance as compared to ET-18-O—CH3 (T-47D) | GI50 (T-47D) [µM] | Performance as compared to ET-18-O—CH3 (MCF-7) | activity compared to ET-18-OCH3 (in words) (MCF-7) | cytotoxicity to normal human fibroblast as compared to ET-18-OCH3 (in words) (WI38) | GI50 (WI38) [µM] | cytotoxicity to normal human fibroblast as compared to ET-18-OCH3 (in words) (WI38; WI-38)
1 | CCCCCCCCCCCCCCCCCCOC[C@@H](COP(=O)([O-])OCC[N+](C)(C)C)OS(C)(=O)=O [1a′S] | 39 | 9.3 µM | 31.3 µM | appeared worse | 2.6 µM | 0 | more active than ET-18-OCH3 | < | ≥ 15 | 128 | more active than ET-18-OCH3 | less cytotoxic | 16.3 | 
2 | CCCCCCCCCCCCCCCCCCOCC(COP(=O)([O-])OCC[N+](C)(C)C)OS(C)(=O)=O (stereo not shown) [Compound 1aR] | > 40 | 6 µM and 6.6 µM | 24.3 µM and 26.4 µM | appeared worse | 2.1 µM and 2.3 µM | + | more active than ET-18-OCH3 | + | < 2.5 | + | more active than ET-18-OCH3 |  | 40.9 | less cytotoxic
3 | CCCCCCCCCCCCCCCCCCOCC(COP(=O)([O-])OCC[N+](C)(C)C)OC [D-ET18OCH3, 1-O-octadecyl-2-O-methyl-glycerophosphocholine, reference compound] | 25.1 | 8 µM | 14.6 µM |  | 5.1 µM |  |  |  |  |  |  |  | 10 to 13.5 | 
